Experiment [1] deals with T1, Alpha-1B adrenergic receptor (Homo sapiens, UniProt P35368).
T1 sequence (P35368 whole entry): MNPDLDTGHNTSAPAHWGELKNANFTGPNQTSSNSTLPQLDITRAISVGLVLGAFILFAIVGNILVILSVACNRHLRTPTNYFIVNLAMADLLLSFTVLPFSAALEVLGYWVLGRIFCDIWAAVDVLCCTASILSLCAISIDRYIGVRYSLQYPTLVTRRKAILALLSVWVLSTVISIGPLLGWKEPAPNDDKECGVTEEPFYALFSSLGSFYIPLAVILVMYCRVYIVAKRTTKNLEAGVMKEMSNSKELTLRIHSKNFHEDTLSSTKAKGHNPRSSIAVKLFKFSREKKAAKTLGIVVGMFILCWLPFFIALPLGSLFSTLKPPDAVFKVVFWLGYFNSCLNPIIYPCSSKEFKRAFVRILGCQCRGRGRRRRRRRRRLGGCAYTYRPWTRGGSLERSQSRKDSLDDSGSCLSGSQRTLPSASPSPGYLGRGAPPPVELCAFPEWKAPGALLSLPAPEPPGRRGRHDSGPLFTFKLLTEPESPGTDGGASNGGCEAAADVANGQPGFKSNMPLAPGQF

Experiment [2] deals with T2, Alpha-1D adrenergic receptor (Homo sapiens, UniProt P25100).
T2 sequence (P25100 whole entry): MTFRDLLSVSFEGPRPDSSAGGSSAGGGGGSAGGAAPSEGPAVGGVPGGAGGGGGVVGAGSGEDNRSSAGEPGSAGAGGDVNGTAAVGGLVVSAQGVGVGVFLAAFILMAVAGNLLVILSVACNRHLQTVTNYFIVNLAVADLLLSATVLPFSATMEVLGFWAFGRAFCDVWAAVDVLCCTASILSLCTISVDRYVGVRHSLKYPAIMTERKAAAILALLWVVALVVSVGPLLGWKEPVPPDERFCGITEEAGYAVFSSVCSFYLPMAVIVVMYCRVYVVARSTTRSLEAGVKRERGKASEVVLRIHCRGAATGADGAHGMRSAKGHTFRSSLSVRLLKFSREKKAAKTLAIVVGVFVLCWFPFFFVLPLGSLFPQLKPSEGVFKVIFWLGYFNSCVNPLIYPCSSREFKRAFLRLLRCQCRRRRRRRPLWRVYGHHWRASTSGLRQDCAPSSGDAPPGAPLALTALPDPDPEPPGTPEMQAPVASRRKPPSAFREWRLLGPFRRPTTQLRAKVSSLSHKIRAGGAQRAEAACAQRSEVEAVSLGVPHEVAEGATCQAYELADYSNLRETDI

On to `CCOc1ccccc1OCCNC(C)Cc1ccc(OC)c(S(N)(=O)=O)c1` (configuration not stated) [NSC_60147], for which the Ki (as a rule, a measure of affinity in units of concentration, obtained from inhibition or displacement) in experiment [1] is 2 nM; in experiment [2], 0.2 nM.

For the origin of these results see BindingDB's records for doi:10.1016/j.bmcl.2007.11.068 (Johnson & Johnson Pharmaceutical Research and Development, 2008).
